Data from publication PMC12373846, “Hemoglobin as a pseudoperoxidase and drug target for oxidative stress-related diseases” (Signal Transduction and Targeted Therapy, 2025).

Experiments:
[1] = test system: primary cultured hippocampal astrocytes; experiment: DCFDA intracellular ROS assay; type: cell-based, mouse; conditions: for ROS level (DCFDA): Fig. 3d
Protocol: (§1) Primary hippocampal astrocytes were obtained from postnatal day 0‒2 (P0‒2) C57BL/6 mice as previously described.[73] The hippocampal tissue was dissected free of meninges, minced, and dissociated into a single-cell suspension by trituration. The cells were grown in Dulbecco’s modified Eagle’s medium supplemented with D-glucose (4500 mg/L), L-glutamine, sodium pyruvate (110 mg/L), 10% heat-inactivated horse serum, 10% heat-inactivated fetal bovine serum, and 1000 U/ml penicillin‒streptomycin. The cells were maintained at 37 °C in a humidified atmosphere containing 5% CO2.
The intracellular ROS levels of astrocytes were determined via 2′,7′- dichlorodihydrofluorescein diacetate (DCFDA; Thermo Fisher). Primary cultured hippocampal astrocytes were seeded into black 96-well plates (Ibidi) at a density of 5 × 10⁴ cells per well. The plates were incubated with oligomerized Aβ42 in the presence of KDS12008, KDS12017, KDS12025, HTPEB (10 µM each), and sodium pyruvate (1 mM). These cells were subsequently washed with Ca^2+ and Mg^2+-containing PBS, followed by the application of 30 µM DCFDA and incubation at 37 °C for 30 min in a dark incubator. The mean fluorescence intensity of each well was measured via iD5 microplate readers at 485 nm and 530 nm. The fluorescence values were calculated by subtracting the blank readings and normalizing them to those of the control group.

[2] = test system: primary cultured hippocampal astrocytes; experiment: oROS-G intracellular H2O2 imaging; type: cell-based, mouse; conditions: for oROS-G fluorescence (intracellular H2O2): Fig. 3f
Protocol: as §1
H2O2 specific, highly sensitive, and fast on-and-off kinetics, a genetically encoded oROS-G plasmid kindly provided by Dr. Andre Berndt. oROS-G was cloned under the GFAP104 promoter and delivered into primary cultured hippocampal astrocytes via the NeoN^TM transfection system (Invitrogen). The cells were treated with various concentrations of Aβ (1 to 10 μM) or 6-OHDA (Tocris, 2547; 10 to 50 μM) to induce aberrant H2O2. For subsequent experiments, 5 μM Aβ and 30 μM 6-OHDA were selected on the basis of initial dose‒response studies. KDS12025 (10 μM) and sodium pyruvate (1 mM) were applied as indicated in each experiment. For live-cell imaging, astrocytes were maintained in a humidified chamber at 37 °C with 5% […] during imaging to preserve physiological conditions. Changes in the fluorescence of oROS-G were recorded via an A1 Nikon confocal microscope equipped with a temperature- and humidity-controlled stage. Images were captured every 20 min for up to 40 h (20for the 6-OHDA experiments) via the NIS-Elements software (Nikon, Japan) for time-lapse imaging. The excitation and emission wavelengths for oROS-G fluorescence were set to 485 nm and 538 nm, respectively. Endpoint fluorescence measurements were also collected for KDS12025 dose-dependent experiments. To analyze the fluorescence intensity, individual regions of interest (ROIs) were manually selected for each astrocyte via NIS-Elements software (Nikon, Japan). The fluorescence intensity changes were normalized to the baseline values (ΔF/F0) to quantify the H2O2 dynamics. To determine the EC50 of KDS12025, endpoint fluorescence intensity data from oROS-G experiments were normalized to those of the Aβ+vehicle control group. The normalized data were analyzed via GraphPad Prism software to fit a four-parameter logistic curve, yielding the EC50 value for the H2O2-decomposing activity of KDS12025.

[3] = target: T1, HRP (Armoracia rusticana, UniProt P00433); experiment: ROS-Glo H2O2 assay with HRP; type: biochemical, horseradish
T1 sequence (P00433 31-353): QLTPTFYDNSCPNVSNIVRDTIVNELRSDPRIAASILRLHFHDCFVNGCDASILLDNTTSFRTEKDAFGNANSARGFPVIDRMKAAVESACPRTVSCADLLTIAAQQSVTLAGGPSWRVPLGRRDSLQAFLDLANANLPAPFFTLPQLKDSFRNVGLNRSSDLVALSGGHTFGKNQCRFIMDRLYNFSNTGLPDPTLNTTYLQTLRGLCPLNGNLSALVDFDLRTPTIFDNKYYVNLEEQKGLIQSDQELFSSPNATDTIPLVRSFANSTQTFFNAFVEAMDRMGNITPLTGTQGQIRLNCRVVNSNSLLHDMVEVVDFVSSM
Protocol: Hb (Sigma‒Aldrich, H7379), H2O2 (Sigma‒Aldrich, H1009), and Amplex Red reagents (Invitrogen, A12222) were obtained for the study. A 4 μM H2O2 solution was prepared in 50 mM sodium phosphate buffer (pH 7.2). Then, 49 μl of this mixture was mixed with 1 μl of the test compound in DMSO or distilled water. The mixture was combined with an assay mixture of Amplex Red reagent (20 mM stock to 0.1 mM) and HRP (200 U/ml stock to 0.2 U/ml) and added to the wells at 50 μl/well. After a 60-min incubation at 37 °C, resorufin production was quantified via a microplate fluorescence reader (SpectraMax iD5, Molecular Devices) at ex/em = 535/580 nm. […] For the ROS-Glo assay, the H2O2 substrate solution and ROS-Glo detection solution were prepared according to the manufacturer’s instructions. 10 μM H2O2 and drugs were prepared as in the Amplex Red assay, with HRP, Hb, CAT, or GPx added as needed. The mixture was added to the wells at 100 μl/well and incubated for 60 min at 37 °C. H2O2 substrate solution was added, and the mixture was incubated at room temperature for 30 min. After the H2O2 substrate solution was added and incubated at room temperature for 30 min, the ROS-Glo detection solution was added, and the mixture was incubated for 15 min. Luminescence was measured via iD5 microplate readers. […] The U/ml was calculated on the basis of the amount of H2O2 reduced by Hb during the reaction, using μg/ml and U/mg.
To evaluate the extent of peroxidase function facilitation by HTPEB (1 μM) and KDS12025 (1 μM) in HRP (0.2 U/ml) and Hb (10 μg/ml), we used the ROS-Glo assay over 30 and 60 min. The fold change was calculated by dividing the delta values during the 30-min reaction for the vehicle over drug conditions.

[4] = DPPH radical scavenging assay; conditions: Fig. S1e
Protocol: In a 96-well microplate, samples (20 μl) at concentrations ranging from 0.1 to 100 μM were mixed with 80 μL of 50 mM sodium phosphate buffer (pH 7.2) and 100 μL of DPPH (1,1-diphenyl-2-picrylhydrazyl) solution (250 μM in methanol) and incubated for 30-min in the dark. Each sample was quantified using a microplate fluorescence reader (SpectraMax iD5, Molecular Devices) at absorbance (517 nm). Edaravone was used as a positive control. The radical scavenging activity was estimated using the following equation: sample absorbance / control absorbance ×100. The dose-response curve, EC50 for the DPPH, was calculated and determined by fitting data with GraphPad Prism software. The fitting method had no special handling of outliers.

Aβ: oligomerized Amyloid-beta (Aβ)42 aggregates [reference compound]
ROS level (DCFDA) ([1]; Aβ 1μM): 101.9±6.217 | ROS level (DCFDA) ([1]; Aβ 5μM): 137.3±8.218 | ROS level (DCFDA) ([1]; Aβ 10μM): 155.2±9.442 | oROS-G fluorescence (intracellular H2O2) ([2]; Aβ 1μM): 109.4±4.271 | oROS-G fluorescence (intracellular H2O2) ([2]; Aβ 5μM): 140.5±4.407 | oROS-G fluorescence (intracellular H2O2) ([2]; Aβ 10μM): 208.1±3.662

HRP: horseradish peroxidase, plant-derived heme-containing peroxidase
EC50 of HRP for H2O2 decomposition without HTPEB ([3]; Fig. S1a): 0.062 U/ml | tau value, reaction time-response of HRP without HTPEB ([3]; Fig. S1b): 13.7 min

CC(=O)C(=O)[O-].[Na+] [Sodium pyruvate, sodium pyruvate, reference compound]
Aβ-induced ROS level (DCFDA), normalized to control ([1]; Aβ 5μM + sodium pyruvate 1mM, Fig. 3e): 149.1±6.194 | oROS-G H2O2 level ([2]; 6-OHDA 30 μM + sodium pyruvate, Fig. 3k): 177.0±17.5 | oROS-G H2O2 level, 40-h imaging ([2]; Aβ 5 μM + sodium pyruvate 1 mM, Fig. 3h): 137.5±9.751 | oROS-G H2O2 level, 40-h imaging ([2]; putrescine 180 μM + sodium pyruvate 1 mM, Fig. 3i): 189.0±23.55

CC1=NN(c2ccccc2)C(=O)C1 [Edaravone]
IC50 [4]: 16.7 µM
